Measured values as given in patent publication US20020119967A1, “Pharmaceutical composition for preventing or treating a disease associated with an excess of IL-12-production” (priority 2000, published 2002).
Where two headings read alike, the source gives them in different places.

Assays:
[1] = tested on: immature DC; assay: CD40-induced IL-12 production by immature DC stimulated with J558-CD40L cells; assay type: cell-based, human; details: 10 μM inhibitor, J558-CD40L stimulation, 24 h supernatant
Procedure: FIG. 2 illustrates the inhibitory effect of PDE4 inhibitors on CD40-induced IL12 production by immature DC. DC (2×10^4 cells/well) were stimulated with J558-CD40L cells in the presence of 10 μM of the indicated PDE4 inhibitors (Ariflo, Rolipram, Diazepino-indole or Pirazolo [4,3-e] diazepine). Results are expressed as the cytokine production in pg/ml of 24 h supernatant of cell cultures. The data shown are from one representative experiment out of three giving similar results. Venous blood from healthy donors is collected by venipuncture in sodium-heparin containing tubes ([…], Terumo Europe, Leuven, Belgium). Peripheral blood mononuclear cells (PBMC) are isolated by density centrifugation on Lymphoprep (Nycomed, Torshov, Norway). Subsequently, PBMC are centrifuged on a Percoll (Pharmacia, Uppsala, Sweden) gradient consisting of three density layers (1.076, 1.059 and 1.045 g/ml). The light density fraction floating on the middle layer, which contained predominantly monocytes, is seeded in 24-well culture plates (Costar, Cambridge, Mass.) at a density of 5×10^5 cells/well. […]

[2] = tested on: dendritic cells; assay: Expression of cell surface molecules (CD1a, CD86, ICAM-1, CD83) on DC matured in presence of PDE4 inhibitors, flow cytometry; assay type: cell-based, human
Text: (§1) Dendritic cells were matured for 2 days with LPS in the presence or absence of the PDE4 inhibitors Ariflo or Rolipram and analysed for the expression of cell surface molecules by flow cytometry. In the left corner of each figure the mean fluorescence intensity (Mn).
as §1, with “with the maturation factors TNF-α plus IL-1β (referred to as MF)” for “with LPS”, “Ariflo and” for “Ariflo or”
At day 6, the maturation of CD1a^+ DC was induced by a 2-day exposure to either LPS (250 ng/ml; Difco, Detroit, Mich.) or a combination of the cytokines rhIL-1β (10 ng/ml), and TNF-α (25 ng/ml) both obtained from Pharma Biotechnologie, Hannover, Germany. Maturation was induced in the absence or presence of PDE4 inhibitors (10 μM, unless stated otherwise) or PGE2 (10^−6 M; Sigma, St. Louis,Mass.). Where indicated, DC were kept in non-maturing conditions during 2 days.
The mouse mAbs against the following human molecules were used: CD1a (OKT6; Ortho Diagnostic System, Beerse, Belgium), ICAM-1, CD86 (Pharmingen, San Diego, Calif.), CD83 (HB15a, IgG2b; Immunotech, Marseille, France), followed by FITC-conjugated goat anti-mouse mAb (Jackson Immunoresearch Laboratories, West Grove, Pa.).
The maturation process of DC is associated with the appearance of CD83 and upregulation of co-stimulatory molecules like CD86. The study whether the presence of PDE4 inhibitors during DC maturation could affect the cell surface expression of the DC-associated marker CD1a, the co-stimulatory molecules CD86 and ICAM-1, and the DC maturation marker CD83, therefore the study of the expression of these markers after treatment has been performed.

[3] = tested on: Naive Th cells (ThN); assay: Naive T cell differentiation (Th1/Th2) after co-culture with DC matured in presence of PDE4 inhibitors, intracellular IFN-γ/IL-4 staining; assay type: cell-based, human; details: DC matured with MF plus 10 μM inhibitor
[4] = tested on: immature DC; assay: LPS plus IFN-γ-induced cytokine production by immature DC; assay type: cell-based, human; details: immature DC stimulated with LPS and IFN-γ, 24 h supernatants; for IL-12p70 production / TNF-α production: vs DMSO-treated DC
Procedure: FIG. 1 illustrates the inhibitory effect of PDE 4 inhibitors on LPS plus IFN-γ-induced cytokine production by immature DC. DC (2×10^4 cells/well) were stimulated with LPS and IFN-γ combined with the indicated concentrations of PDE4 inhibitors (Ariflo or Rolipram). Results are expressed as the mean cytokine production in ng/ml of duplicate cultures (24h supernatants). A: IL-12p70; B: TNF-α; C: IL-6. Cytokine production is expressed as ng/ml.
Venous blood from healthy donors is collected by venipuncture in sodium-heparin containing tubes (VT100H; Venoject, Terumo Europe, Leuven, Belgium). Peripheral blood mononuclear cells (PBMC) are isolated by density centrifugation on Lymphoprep (Nycomed, Torshov, Norway). Subsequently, PBMC are centrifuged on a Percoll (Pharmacia, Uppsala, Sweden) gradient consisting of three density layers (1.076, 1.059 and 1.045 g/ml). The light density fraction floating on the middle layer, which contained predominantly monocytes, is seeded in 24-well culture plates (Costar, Cambridge, Mass.) at a density of 5×10^5 cells/well. After 30 min of incubation at 37° C., nonadherent cells are removed; adherent cells are cultured in Iscove's modified Dulbecco's medium (Life Technologies, Paisley, U.K.) containing gentamycin (86 μg/ml; Duchefa, Haarlem, The Netherlands) and 1% FCS (Hyclone, Logan, Utah.) and supplemented with GM-CSF (500 U/ml) and IL-4 (250 U/ml) to obtain DC. At day 3, the media, including the supplements, are refreshed. At day 6, immature CD1a^+CD14^− DC are obtained.
Measurements of IL-12p70 levels in culture supernatants were performed by a specific solid-phase sandwich ELISA OptEI™ human IL-12P70 (Pharmingen San Diego, Calif.). Measurements of IL-6 and TNF-α were performed by ELISA using pairs of specific mAbs and recombinant cytokine standards obtained from BioSource International (Camarillo, Calif.). The limits of detection of these ELISA are as follows: IL-6, 20 pg/ml; IL-12p70, 3 pg/ml; and TNF-α, 20 pg/ml.
In contrast, the production of IL-6 by the immature DC was not affected by any of the inhibitors.

[5] = tested on: dendritic cells; details: cited from earlier work
[6] = DC matured 2 days with TNF-α plus IL-1β (MF)

COc1ccc([C@]2(C#N)CC[C@@H](C(=O)O)CC2)cc1OC1CCCC1 [Ariflo]
IL-12 production [1]: able to inhibit IL-12 production
expression of cell surface molecules (phenotype of mature DC) ([2]; DC matured 2 days with LPS): absence of phenotypic effect
expression of cell surface molecules (phenotype of mature DC) [2, 6]: absence of phenotypic effect
IFN-γ (%) positive cells ([3]; Experiment 1): 4.7%
IL-4 positive cells (%) ([3]; Experiment 1): 15.1%
IFN-γ (%) positive cells ([3]; Experiment 2): 29.6%
IL-4 (%) positive cells ([3]; Experiment 2): 2.0%
IFN-g (%) positive cells ([3]; Experiment 3): 24.0%
IL-4 (%) positive cells ([3]; Experiment 3): 6.2%
IL-6 production [4]: not affected
IL-12p70 production [4]: reduced ability to produce
TNF-α production [4]: reduced ability to produce

COc1ccc(C2CNC(=O)C2)cc1OC1CCCC1 (stereo not drawn) [Rolipram]
IL-12 production [1]: able to inhibit IL-12 production
expression of cell surface molecules (phenotype of mature DC) ([2]; DC matured 2 days with LPS): absence of phenotypic effect
expression of cell surface molecules (phenotype of mature DC) [2, 6]: absence of phenotypic effect
IFN-γ (%) positive cells ([3]; Experiment 1): 7.2%
IL-4 positive cells (%) ([3]; Experiment 1): 13.5%
IFN-γ (%) positive cells ([3]; Experiment 2): 35.4%
IL-4 (%) positive cells ([3]; Experiment 2): 1.1%
IFN-g (%) positive cells ([3]; Experiment 3): 24.5%
IL-4 (%) positive cells ([3]; Experiment 3): 5.7%
IL-6 production [4]: not affected
IL-12p70 production [4]: reduced ability to produce
TNF-α production [4]: reduced ability to produce

CCCCC[C@H](O)/C=C/[C@H]1[C@H](O)CC(=O)[C@@H]1C/C=C\CCCC(=O)O [prostaglandin E2]
IL-12 production by dendritic cells ([5]; shown in the art): inhibit IL-12 production

CC(C)(C)NCC(O)c1ccc(O)c(CO)c1 (stereo not drawn) [salbutamol]
IL-12 production by dendritic cells ([5]; shown in the art): inhibit IL-12 production

cholera toxin
IL-12 production by dendritic cells [5]: inhibit IL-12 production
